Measurements: US20080269342A1, “Pleuromutilin Derivatives and Its Use” (priority 2005, published 2008)

Assays:
[1] = tested on: F. tularensis; format: cell-based; details: biothreat organism
[2] = tested on: H. influenzae; assay: in vitro antibacterial activity; format: cell-based; details: primary respiratory pathogen
[3] = tested on: S. pneumoniae; assay: in vitro antibacterial activity; format: cell-based; details: primary respiratory pathogen
[4] = tested on: N. gonorrhoeae; assay: in vitro activity against Neisserria sp.; format: cell-based; details: both ciprofloxacin susceptible and resistant
[5] = tested on: anaerobic organisms; assay: in vitro activity against anaerobic organisms; format: cell-based
[6] = tested on: representative Gram-positive and Gram-negative pathogens; assay: in vitro activity against representative pathogens; format: cell-based; details: pathogens associated with respiratory tract and skin and skin structure infections, including isolates resistant to existing classes of antimicrobials
[7] = tested on: S. aureus; assay: in vitro antibacterial activity; format: cell-based
[8] = tested on: M. catarrhalis; assay: in vitro antibacterial activity; format: cell-based; details: primary respiratory pathogen
[9] = tested on: L. pneumophila; format: cell-based; details: atypical pathogen
[10] = tested on: N. meningitidis; assay: in vitro activity against Neisserria sp.; format: cell-based
[11] = tested on: isolates carrying resistance determinants to other antibiotics; assay: in vitro activity against resistant isolates of respiratory pathogens; format: cell-based; details: penicillin-, macrolide-, methicillin- or levofloxacin-resistant phenotypes
[12] = tested on: representative Gram-positive and Gram-negative pathogens; assay: in vivo activity against representative pathogens; details: pathogens associated with respiratory tract and skin and skin structure infections, including isolates resistant to existing classes of antimicrobials
[13] = tested on: C. pneumoniae; assay: in vitro activity against atypical pathogens; format: cell-based; details: atypical pathogen
[14] = tested on: M. pneumoniae; assay: in vitro activity against atypical pathogens; format: cell-based; details: atypical pathogen
[15] = tested on: S. pyogenes; assay: in vitro antibacterial activity; format: cell-based
[16] = primary respiratory pathogen, primary pathogen of skin and skin structure infections

C=C[C@]1(C)C[C@@H](OC(=O)NC(=O)O[C@H]2C[C@H](N)C2)[C@]2(C)[C@H](C)CC[C@]3(CCC(=O)[C@H]32)[C@@H](C)[C@@H]1O [Compound I, trans-3-aminocyclobutyl (1S,2R,3S,4S,6R,7R,8R,14R)-4-ethenyl-3-hydroxy-2,4,7,14-tetramethyl-9-oxotricyclo[5.4.3.01,8]tetradec-6-yl imidodicarbonate]
in vitro activity [1]: good in vitro activity | in vitro antibacterial activity [2]: good in vitro antibacterial activity | in vitro antibacterial activity [3]: good in vitro antibacterial activity | in vitro activity [4]: good in vitro activity | in vitro activity [5]: good in vitro activity | in vitro activity [6]: good | activity against isolates carrying resistance determinants to other antibiotics ([7]; S. aureus isolates, penicillin-, macrolide-, methicillin- or levofloxacin-resistant phenotypes): retained | in vitro antibacterial activity [7, 16]: good in vitro antibacterial activity | in vitro antibacterial activity [8]: good in vitro antibacterial activity | in vitro activity [9]: good in vitro activity | in vitro activity [10]: good in vitro activity | activity against isolates carrying resistance determinants to other antibiotics [11]: activity | in vivo activity [12]: good | in vitro activity [13]: good in vitro activity | in vitro activity [14]: good in vitro activity | activity against isolates carrying resistance determinants to other antibiotics ([15]; S. pyogenes isolates, penicillin-, macrolide-, methicillin- or levofloxacin-resistant phenotypes): retained | in vitro antibacterial activity [15, 16]: good in vitro antibacterial activity
